Data as given in publication PMC12207802, “Discovery of coniferaldehyde as an inhibitor of caseinolytic protease to combat Staphylococcus aureus infections” (Molecular Medicine, 2025).

Biological target: T1, Caseinolytic protease P (ClpP) (Staphylococcus aureus, UniProt Q2G036)
T1 construct: clpP of S. aureus NCTC 8325-4 in pET-28a (+), Ni-purified
Experiment: fluorogenic Suc-Leu-Tyr-AMC peptidase assay with purified ClpP; supported by fluorescence quenching (Ka), CETSA, CD and ClpXP GFP-SsrA degradation
Format: biochemical

T1 sequence (Q2G036 whole entry): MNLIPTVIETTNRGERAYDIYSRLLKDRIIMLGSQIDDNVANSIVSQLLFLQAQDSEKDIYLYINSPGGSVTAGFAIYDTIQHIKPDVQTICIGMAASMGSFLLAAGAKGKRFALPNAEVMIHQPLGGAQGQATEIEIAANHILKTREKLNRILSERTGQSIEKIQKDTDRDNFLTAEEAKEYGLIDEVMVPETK

`COc1cc(/C=C/C=O)ccc1O` [CA, 4-hydroxy-3-methoxycinnamaldehyde] showed an IC50 of 103 µM.
